PubChem BioAssay AID977613 (Broad Institute, 2014)
Calls of active or inactive are those of the source. How the calls were made is not given here.

These molecules were tested on Broad 7084-01 inhibitor HTS, set 2 (assay: single-concentration hits, screen 7084 set 2 (AID 977613);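 further: host cells are infected with parasite promastigotes that become internalized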).

For `CN(C)CC(=O)N1[C@H](C#N)[C@@H](c2ccccc2-c2ccccc2F)[C@H]1CO`, which active concentration is on record?
The active concentration was > 10 µM (inactive).

With `CN1C(=O)c2cc(NC(=O)c3ccc(F)c(F)c3)ccc2OC[C@@H]2O[C@@H](CC(=O)N[C@@H]3CCN(Cc4ccccc4)C3)CC[C@H]21` as the molecule, how does the active concentration read?
The active concentration was > 10 µM (inactive).

For `CCc1cnc(N2[C@H](C#N)[C@@H](c3ccccc3C3=CCCCC3)[C@@H]2CO)s1`, which active concentration is on record?
The active concentration was > 10 µM (inactive).

How did the active concentration turn out when `O=C(C[C@H]1CC[C@H]2[C@@H](COC[C@H](O)CN2S(=O)(=O)c2ccc(F)cc2)O1)NCC1CC1` was run?
Its active concentration is > 10 µM (inactive).

Which active concentration does the source give for `COCC#Cc1ccc([C@@H]2[C@H](CO)N3C(=O)CN(C(=O)Nc4ccccc4F)C[C@@H]23)cc1` here?
The active concentration was > 10 µM (inactive).

Which active concentration does the source give for `CC(C)C#Cc1ccc([C@H]2[C@H](CO)N3C(=O)CN(C(=O)c4ccc5c(c4)OCO5)C[C@@H]23)cc1` here?
The active concentration was > 10 µM (inactive).

`COc1ccccc1-c1ccc([C@@H]2[C@@H](CO)N(CC3CC3)C23CN(S(C)(=O)=O)C3)cc1` was tested. Which active concentration did it give?
The active concentration was > 10 µM (inactive).

How did the active concentration turn out when `CCNC(=O)[C@H]1[C@H](CO)[C@H]2Cn3c(ccc(-c4ccccc4)c3=O)[C@H]2N1CC` was run?
The active concentration was > 10 µM (inactive).

For `O=C(C[C@@H]1CC[C@H]2[C@@H](COC[C@@H](O)CN2CC2CC2)O1)NCc1ccc(Cl)cc1`, which active concentration is on record?
Its active concentration is > 10 µM (inactive).

With `O=C(C1CCOCC1)N1CC(=O)N2[C@@H](CO)[C@@H](c3ccc(-c4cccnc4)cc3)[C@@H]2C1` as the molecule, how does the active concentration read?
The active concentration was > 10 µM (inactive).

For `OC[C@@H]1[C@H](c2ccccc2)C2(CN(Cc3nccs3)C2)N1CCC(F)(F)F`, which active concentration is on record?
Its active concentration is > 10 µM (inactive).

`COc1ccc2c3c([nH]c2c1)[C@H](CO)N(C(=O)C1CCCCC1)CC31CCN(C)CC1` was tested. Which active concentration did it give?
Its active concentration is > 10 µM (inactive).

`CCCN1[C@@H]2c3ccc(-c4cncnc4)c(=O)n3C[C@@H]2[C@@H](CO)[C@@H]1C(=O)OC` was tested. Which active concentration did it give?
Its active concentration is > 10 µM (inactive).

Which active concentration does the source give for `CCCNC(=O)N1[C@H](CO)[C@H](c2ccccc2-c2ccc(C)cc2)[C@@H]1C#N` here?
Its active concentration is > 10 µM (inactive).

How did the active concentration turn out when `OC[C@@H]1[C@@H]2c3ccccc3NC[C@@H]2N1Cc1cccnc1` was run?
The active concentration was > 10 µM (inactive).

Which active concentration does the source give for `Cc1cc(C(=O)Nc2ccc3c(c2)C(=O)N(C)[C@@H]2CC[C@@H](CC(=O)NCc4ccc(-c5ccccc5)cc4)O[C@H]2CO3)no1` here?
Its active concentration is > 10 µM (inactive).

For `CC=Cc1ccc2n(c1=O)C[C@@H]1[C@@H](CO)[C@H](C(=O)NCC)N(C(=O)CC3CC3)[C@H]21` (mixture of isomers), which active concentration is on record?
The active concentration was > 10 µM (inactive).

`COCC(=O)N1[C@H](C#N)[C@H](c2ccccc2-c2ccc(C)cc2)[C@@H]1CO` was tested. Which active concentration did it give?
The active concentration was > 10 µM (inactive).

`O=C(C[C@H]1CC[C@H]2[C@@H](COC[C@@H](O)CN2Cc2nccs2)O1)NCc1ccccc1` was tested. Which active concentration did it give?
The active concentration was > 10 µM (inactive).

`O=C1CN(S(=O)(=O)Cc2ccccc2)C[C@@H]2[C@H](c3ccc(C#Cc4ccccc4)cc3)[C@H](CO)N12` was tested. Which active concentration did it give?
Its active concentration is > 10 µM (inactive).

How did the active concentration turn out when `COc1cccc(C#Cc2ccc([C@H]3[C@H](CO)N4C(=O)CN(C(=O)Cc5cccnc5)C[C@@H]34)cc2)c1` was run?
The active concentration was > 10 µM (inactive).

For `O=C(C[C@H]1CC[C@@H]2[C@H](COC[C@@H](O)CN2C(=O)C2CC2)O1)NCc1ccncc1`, which active concentration is on record?
The active concentration was > 10 µM (inactive).

With `O=C(Nc1ccccc1)N1CC(=O)N2[C@@H](CO)[C@H](c3ccc(C#CC4CCCCC4)cc3)[C@@H]2C1` as the molecule, how does the active concentration read?
The active concentration was > 10 µM (inactive).

How did the active concentration turn out when `CCC(=O)N1[C@@H]2Cn3c(ccc(-c4ccncc4)c3=O)[C@H]1[C@@H](C(=O)NC1Cc3ccccc3C1)[C@@H]2CO` was run?
The active concentration was > 10 µM (inactive).

`CN1[C@H](CO)[C@@H]2c3ccccc3N(C(=O)c3ccc(F)cc3)C[C@@H]21` was tested. Which active concentration did it give?
Its active concentration is > 10 µM (inactive).

`COc1ccc2c3c([nH]c2c1)[C@@H](CO)N(C(=O)CN(C)C)CC31CCN(Cc2cncnc2)CC1` was tested. Which active concentration did it give?
Its active concentration is > 10 µM (inactive).

Which active concentration does the source give for `Cc1noc(C)c1NC(=O)N1C[C@H](O)COC[C@H]2O[C@@H](CC(=O)NCC3CCCCC3)CC[C@@H]21` here?
The active concentration was > 10 µM (inactive).

Which active concentration does the source give for `CN1C(=O)c2cc(NC(=O)c3ccc(F)c(F)c3)ccc2OC[C@H]2O[C@@H](CC(=O)N[C@H]3CCN(Cc4ccccc4)C3)CC[C@@H]21` here?
The active concentration was > 10 µM (inactive).

`COc1cccc(NC(=O)Nc2ccc3c(c2)C(=O)N(C)[C@H]2CC[C@H](CC(=O)NCCc4ccccc4)O[C@@H]2CO3)c1` was tested. Which active concentration did it give?
The active concentration was > 10 µM (inactive).

With `COc1ccccc1CN1[C@@H]2CN(C(=O)C3CCCCC3)c3ccccc3[C@@H]2[C@@H]1CO` as the molecule, how does the active concentration read?
The active concentration was > 10 µM (inactive).

`COc1ccc(NC(=O)N2CC[C@@H]3[C@H]2c2cc(Br)ccc2N(C)[C@H]3CO)cc1` was tested. Which active concentration did it give?
The active concentration was > 10 µM (inactive).

How did the active concentration turn out when `COc1ccccc1CN1[C@H](CO)[C@H]2c3ccccc3N(C(=O)C3CCCCC3)C[C@H]21` was run?
Its active concentration is > 10 µM (inactive).

Which active concentration does the source give for `O=C(c1ccccc1)N1CC(=O)N2[C@H](C1)[C@@H](c1ccc(-c3ccccc3)cc1)[C@@H]2CO` here?
The active concentration was > 10 µM (inactive).

Which active concentration does the source give for `C/C=C/c1ccc2c(c1)[C@@H]1[C@@H](CCN1C(=O)Cc1cccnc1)[C@@H](CO)N2C` here?
Its active concentration is > 10 µM (inactive).

`COc1cccc(-c2ccc3c(c2)[C@H]2[C@H](CCN2S(=O)(=O)c2ccccc2C)[C@@H](CO)N3)c1` was tested. Which active concentration did it give?
Its active concentration is > 10 µM (inactive).

For `COCC(=O)N1[C@@H]2c3ccc(/C=C/c4ccccc4)c(=O)n3C[C@H]1[C@H](CO)[C@H]2C(=O)N1CCOCC1`, which active concentration is on record?
The active concentration was > 10 µM (inactive).

For `CC=Cc1ccc2n(c1=O)C[C@H]1[C@H](CO)[C@@H](C(=O)N[C@@H](C)c3ccccc3)N(C(=O)c3cnccn3)[C@@H]21` (mixture of isomers), which active concentration is on record?
Its active concentration is > 10 µM (inactive).

With `N#C[C@H]1[C@H](c2ccccc2-c2ccccc2F)[C@H](CO)N1C(=O)Cc1ccccc1` as the molecule, how does the active concentration read?
The active concentration was > 10 µM (inactive).

`COc1ccc2c3c([nH]c2c1)[C@H](CO)N(Cc1ccncc1)CC31CCN(CC2CCOCC2)CC1` was tested. Which active concentration did it give?
Its active concentration is > 10 µM (inactive).

For `COC(=O)C[C@H]1CC[C@@H]2[C@H](COc3ccc(NC(=O)c4cccc(Cl)c4)cc3C(=O)N2C)O1`, which active concentration is on record?
The active concentration was > 10 µM (inactive).

How did the active concentration turn out when `N#C[C@@H]1[C@@H](c2ccccc2C2=CCCCC2)[C@@H](CO)N1S(=O)(=O)c1cccc(F)c1` was run?
Its active concentration is > 10 µM (inactive).

Which active concentration does the source give for `O=C(C[C@H]1CC[C@@H]2[C@H](COC[C@H](O)CN2CCC(F)(F)F)O1)NCC1CC1` here?
The active concentration was > 10 µM (inactive).

`CC(=O)N1CC[C@@H]2[C@@H](CO)Nc3ccc(C#Cc4cccnc4)cc3[C@@H]21` was tested. Which active concentration did it give?
Its active concentration is > 10 µM (inactive).

`O=C(C[C@H]1CC[C@@H]2[C@H](COC[C@@H](O)CN2S(=O)(=O)c2ccc(F)cc2)O1)NCC1CC1` was tested. Which active concentration did it give?
The active concentration was > 10 µM (inactive).

With `COc1ccccc1CNC(=O)C[C@@H]1CC[C@H]2[C@@H](COC[C@@H](O)CN2C(=O)Nc2ccccc2)O1` as the molecule, how does the active concentration read?
Its active concentration is > 10 µM (inactive).

With `Cc1ccccc1S(=O)(=O)N1CCCCN2[C@H](CO)[C@@H](c3ccc(C#CCN(C)C)cc3)[C@H]2C1` as the molecule, how does the active concentration read?
The active concentration was > 10 µM (inactive).

With `CCC(=O)N1CC2(C1)CN(C(=O)c1cnccn1)[C@H](CO)c1c2c2ccc(OC)cc2n1C` as the molecule, how does the active concentration read?
The active concentration was > 10 µM (inactive).

Which active concentration does the source give for `CN1C(=O)c2cc(NC(=O)Cc3cccs3)ccc2OC[C@@H]2O[C@@H](CC(=O)N[C@@H]3CCN(Cc4ccccc4)C3)CC[C@H]21` here?
The active concentration was > 10 µM (inactive).

`N#C[C@H]1[C@H](c2ccccc2-c2ccccc2F)[C@@H](CO)N1C(=O)Cc1ccccc1` was tested. Which active concentration did it give?
Its active concentration is > 10 µM (inactive).
